Assays:
Melanocortin receptor 5 = Melanocortin receptor 5 (Homo sapiens, UniProt P33032); type: cell membranes, HEK293, Membrane; also: in other assays of this panel Not Active means under 50% inhibition at 10 µM
Cytochrome P450 2C9 = Cytochrome P450 2C9 (Homo sapiens, UniProt P11712); conditions: bti-tn-5b1-4; also: in other assays of this panel Not Active means under 50% inhibition at 10 µM
[1] = molecular target: T1, Nitric oxide synthase, inducible (Mus musculus, UniProt P29477); design: species or system Escherichia coli;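 also: inhibition of iNOS enzyme activity measured with L-arginine as substrate; in other assays of this panel Not Active means under 50% inhibition at 10 µM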
T1 sequence (P29477 whole entry): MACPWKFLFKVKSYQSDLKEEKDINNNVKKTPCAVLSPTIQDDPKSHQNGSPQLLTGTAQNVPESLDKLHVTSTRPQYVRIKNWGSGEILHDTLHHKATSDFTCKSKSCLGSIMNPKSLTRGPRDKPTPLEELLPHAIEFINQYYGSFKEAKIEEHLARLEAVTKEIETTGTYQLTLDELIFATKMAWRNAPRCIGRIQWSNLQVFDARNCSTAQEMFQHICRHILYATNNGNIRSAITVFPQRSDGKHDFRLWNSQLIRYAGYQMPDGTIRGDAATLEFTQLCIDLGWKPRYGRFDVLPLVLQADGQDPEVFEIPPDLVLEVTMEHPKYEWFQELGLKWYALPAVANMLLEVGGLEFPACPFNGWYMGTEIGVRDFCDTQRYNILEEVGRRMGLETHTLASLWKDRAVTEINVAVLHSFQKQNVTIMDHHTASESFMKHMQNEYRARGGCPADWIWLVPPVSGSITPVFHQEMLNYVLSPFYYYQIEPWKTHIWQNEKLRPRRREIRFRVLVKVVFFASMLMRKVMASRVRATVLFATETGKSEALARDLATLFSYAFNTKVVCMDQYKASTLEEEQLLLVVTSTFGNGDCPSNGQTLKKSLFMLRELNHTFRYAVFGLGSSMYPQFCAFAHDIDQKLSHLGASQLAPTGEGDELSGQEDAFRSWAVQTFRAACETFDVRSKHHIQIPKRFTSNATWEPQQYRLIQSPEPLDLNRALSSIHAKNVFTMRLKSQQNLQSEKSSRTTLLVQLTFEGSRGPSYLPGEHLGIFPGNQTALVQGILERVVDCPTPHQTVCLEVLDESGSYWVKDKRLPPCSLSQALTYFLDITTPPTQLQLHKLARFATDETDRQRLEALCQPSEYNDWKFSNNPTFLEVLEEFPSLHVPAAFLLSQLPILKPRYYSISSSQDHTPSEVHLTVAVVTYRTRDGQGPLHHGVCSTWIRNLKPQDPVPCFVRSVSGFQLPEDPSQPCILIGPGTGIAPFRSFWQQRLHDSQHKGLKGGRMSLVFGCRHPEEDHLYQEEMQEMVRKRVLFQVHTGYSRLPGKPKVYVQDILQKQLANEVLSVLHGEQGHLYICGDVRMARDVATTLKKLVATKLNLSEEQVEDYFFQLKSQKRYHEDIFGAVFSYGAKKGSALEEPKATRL

[2] = molecular target: T2, C-X-C chemokine receptor type 1 (Homo sapiens, UniProt P25024); also: in other assays of this panel Not Active means under 50% inhibition at 10 µM
T2 sequence (P25024 whole entry): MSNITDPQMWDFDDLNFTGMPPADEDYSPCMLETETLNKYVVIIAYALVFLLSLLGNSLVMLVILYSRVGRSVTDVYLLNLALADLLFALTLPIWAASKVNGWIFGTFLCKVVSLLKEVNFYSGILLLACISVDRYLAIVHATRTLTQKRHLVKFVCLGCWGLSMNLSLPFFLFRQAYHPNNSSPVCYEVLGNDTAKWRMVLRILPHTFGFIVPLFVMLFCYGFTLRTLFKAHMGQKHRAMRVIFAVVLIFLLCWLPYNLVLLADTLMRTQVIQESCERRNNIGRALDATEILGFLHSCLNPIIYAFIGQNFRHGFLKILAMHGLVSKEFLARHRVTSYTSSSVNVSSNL

Cytochrome P450 2A6 = molecular target: T3, Cytochrome P450 2A6 (Homo sapiens, UniProt P11509); conditions: bti-tn-5b1-4; also: in other assays of this panel Not Active means under 50% inhibition at 10 µM
T3 sequence (P11509 whole entry): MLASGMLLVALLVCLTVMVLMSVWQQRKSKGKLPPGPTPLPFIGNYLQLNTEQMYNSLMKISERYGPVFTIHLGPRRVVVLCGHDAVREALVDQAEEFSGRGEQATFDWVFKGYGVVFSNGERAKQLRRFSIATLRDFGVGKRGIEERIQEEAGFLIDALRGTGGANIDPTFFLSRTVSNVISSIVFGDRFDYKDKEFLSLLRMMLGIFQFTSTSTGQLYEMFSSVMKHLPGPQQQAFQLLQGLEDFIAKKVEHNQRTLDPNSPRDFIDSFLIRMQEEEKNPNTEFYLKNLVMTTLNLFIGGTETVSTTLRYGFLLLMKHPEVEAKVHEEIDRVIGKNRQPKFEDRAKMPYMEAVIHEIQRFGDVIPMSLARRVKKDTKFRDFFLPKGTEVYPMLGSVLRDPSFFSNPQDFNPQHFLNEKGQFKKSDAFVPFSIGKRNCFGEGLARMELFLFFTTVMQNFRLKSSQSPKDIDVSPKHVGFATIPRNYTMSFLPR

[3] = molecular target: T4, Polyunsaturated fatty acid lipoxygenase ALOX15 (Oryctolagus cuniculus, UniProt P12530); test: biochemical; type: tissue-based, Reticulocytes
T4 sequence (P12530 whole entry): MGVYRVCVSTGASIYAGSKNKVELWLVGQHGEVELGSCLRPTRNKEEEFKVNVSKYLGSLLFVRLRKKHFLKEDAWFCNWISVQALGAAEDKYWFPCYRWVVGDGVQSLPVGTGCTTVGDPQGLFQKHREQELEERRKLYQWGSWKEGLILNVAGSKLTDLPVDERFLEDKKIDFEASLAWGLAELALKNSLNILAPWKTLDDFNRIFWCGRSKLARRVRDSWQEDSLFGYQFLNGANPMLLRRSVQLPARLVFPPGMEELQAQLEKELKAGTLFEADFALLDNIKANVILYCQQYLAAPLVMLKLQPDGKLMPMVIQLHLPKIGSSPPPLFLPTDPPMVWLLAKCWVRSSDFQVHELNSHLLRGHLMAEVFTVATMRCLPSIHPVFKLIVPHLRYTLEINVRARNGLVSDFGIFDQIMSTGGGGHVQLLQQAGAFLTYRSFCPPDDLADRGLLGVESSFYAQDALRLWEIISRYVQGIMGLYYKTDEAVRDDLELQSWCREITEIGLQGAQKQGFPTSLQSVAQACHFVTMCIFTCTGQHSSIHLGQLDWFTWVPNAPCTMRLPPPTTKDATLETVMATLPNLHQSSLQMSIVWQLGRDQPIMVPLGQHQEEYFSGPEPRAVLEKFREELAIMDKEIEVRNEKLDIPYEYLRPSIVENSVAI

[4] = DRUGMATRIX: Phosphodiesterase PDE3 enzyme inhibition (substrate: [3H]cAMP + cAMP); type: tissue-based, Homo sapiens; conditions: platelet; Not Active = under 50% inhibition at 10 µM

Cytochrome P450 2C9, sequence (P11712 whole entry): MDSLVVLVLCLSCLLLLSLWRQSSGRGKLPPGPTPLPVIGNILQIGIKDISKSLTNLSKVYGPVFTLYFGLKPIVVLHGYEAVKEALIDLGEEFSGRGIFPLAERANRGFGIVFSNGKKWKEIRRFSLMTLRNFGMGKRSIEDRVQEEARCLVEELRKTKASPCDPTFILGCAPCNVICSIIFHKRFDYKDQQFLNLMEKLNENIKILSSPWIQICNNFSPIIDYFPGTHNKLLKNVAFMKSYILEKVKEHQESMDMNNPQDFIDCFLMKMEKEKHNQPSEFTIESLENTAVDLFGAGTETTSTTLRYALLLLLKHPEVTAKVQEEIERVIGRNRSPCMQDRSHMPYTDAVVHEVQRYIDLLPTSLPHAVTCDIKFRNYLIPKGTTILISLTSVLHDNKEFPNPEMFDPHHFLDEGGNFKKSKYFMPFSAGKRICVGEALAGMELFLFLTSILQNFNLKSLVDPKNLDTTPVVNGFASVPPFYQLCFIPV
Melanocortin receptor 5, sequence (P33032 whole entry): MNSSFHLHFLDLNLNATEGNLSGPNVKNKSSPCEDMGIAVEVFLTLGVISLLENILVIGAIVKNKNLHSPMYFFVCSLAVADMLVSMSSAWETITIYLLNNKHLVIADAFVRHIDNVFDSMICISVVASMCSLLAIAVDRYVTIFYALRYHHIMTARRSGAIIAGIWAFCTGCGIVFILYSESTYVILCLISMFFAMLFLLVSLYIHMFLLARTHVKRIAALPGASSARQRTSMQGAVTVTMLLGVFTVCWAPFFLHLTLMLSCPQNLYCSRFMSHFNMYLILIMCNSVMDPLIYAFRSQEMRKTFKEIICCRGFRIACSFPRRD

Row | Structure (SMILES) | IC50 (Melanocortin receptor 5; hek293) | IC50 (Cytochrome P450 2C9) | Ki (Cytochrome P450 2C9) | IC50 [1] | IC50 [2] | IC50 (Cytochrome P450 2A6) | Ki (Cytochrome P450 2A6) | IC50 ([3]; reticulocytes) | IC50 [4] | Ki [4] | IC50 ([3]; read-out: IC50) | IC50 (Melanocortin receptor 5; read-out: IC50) | Ki (Melanocortin receptor 5; read-out: Ki)
1 | CC(C)CN(C[C@@H](O)[C@H](Cc1ccccc1)NC(=O)O[C@H]1CCOC1)S(=O)(=O)c1ccc(N)cc1 | Not Active | Not Active | Not Active | Not Active | Not Active | Not Active | Not Active | Not Active | Not Active | Not Active |  |  | 
2 | c1ccc(Nc2ccc(Nc3ccccc3)cc2)cc1 | Not Active | Not Active | Not Active | Not Active | Not Active | Not Active | Not Active |  | Not Active | Not Active | 2.88 µM |  | 
3 | COc1cc2c3cc1Oc1cc(ccc1O)C[C@@H]1c4c(cc(OC)c(O)c4Oc4ccc(cc4)C[C@@H]3N(C)CC2)CC[N+]1(C)C.[Cl-] | Not Active | Not Active | Not Active | Not Active | Not Active | Not Active | Not Active | Not Active | Not Active | Not Active |  |  | 
4 | NC(=O)N1c2ccccc2CCc2ccccc21 | Not Active | Not Active | Not Active | Not Active | Not Active | Not Active | Not Active | Not Active | Not Active | Not Active |  |  | 
5 | O=C1CC[C@@H](N2C(=O)c3ccccc3C2=O)C(=O)N1 | Not Active | Not Active | Not Active | Not Active | Not Active | Not Active | Not Active | Not Active | Not Active | Not Active |  |  | 
6 | Cc1onc(O)c1CC(N)C(=O)O (racemic) [(R,S)-AMPA] | Not Active | Not Active | Not Active | Not Active | Not Active | Not Active | Not Active | Not Active | Not Active | Not Active |  |  | 
7 | CN(C)c1nc(N(C)C)nc(N(C)C)n1 [ALTRETAMINE] | Not Active |  |  | Not Active | Not Active |  |  | Not Active | Not Active | Not Active |  |  | 
8 | Nc1c(Br)cc(Br)cc1CN[C@H]1CC[C@H](O)CC1 [AMBROXOL] | Not Active |  |  | Not Active | Not Active |  |  | Not Active | Not Active | Not Active |  |  | 
9 | CN(C)CCCN1c2ccccc2Sc2ccc(Cl)cc21 [CHLORPROMAZINE] |  |  |  | Not Active | Not Active | Not Active | Not Active |  | Not Active | Not Active | 16 µM | 7.62 µM | 7.15 µM
10 | CC(C)(Oc1ccc(Cl)cc1)C(=O)O [CLOFIBRIC ACID] | Not Active |  |  | Not Active | Not Active | Not Active | Not Active | Not Active | Not Active | Not Active |  |  | 
11 | Cc1cc(C(C#N)c2ccc(Cl)cc2)c(Cl)cc1NC(=O)c1cc(I)cc(I)c1O (stereo not given) [CLOSANTEL] | Not Active |  |  | Not Active | Not Active | Not Active | Not Active | Not Active | Not Active | Not Active |  |  | 
12 | Cc1onc(-c2ccccc2Cl)c1C(=O)N[C@@H]1C(=O)N2[C@@H]1SC(C)(C)[C@@H]2C(=O)O [CLOXACILLIN] | Not Active |  |  | Not Active | Not Active | Not Active | Not Active | Not Active | Not Active | Not Active |  |  | 
13 | O=c1oc2ccccc2c(O)c1Cc1c(O)c2ccccc2oc1=O [DICUMAROL] | Not Active |  |  | Not Active | Not Active | Not Active | Not Active | Not Active | Not Active | Not Active |  |  | 
14 | CC(C)[C@@]1(NC(=O)[C@@H]2C[C@@H]3c4cccc5[nH]cc(c45)C[C@H]3N(C)C2)O[C@@]2(O)[C@@H]3CCCN3C(=O)[C@H](Cc3ccccc3)N2C1=O.CS(=O)(=O)O [DIHYDROERGOCRISTINE MESYLATE] | Not Active |  |  | Not Active | Not Active | Not Active | Not Active | Not Active | Not Active | Not Active |  |  | 
15 | C[C@]12CC[C@@H]3c4ccc(O)cc4CC[C@H]3[C@@H]1CCC2=O [ESTRONE] | Not Active |  |  | Not Active | Not Active |  |  |  | Not Active | Not Active | 6.59 µM |  | 
16 | N=C(N)NCCN1CCCCCCC1 [GUANETHIDINE] | Not Active |  |  | Not Active | Not Active |  |  | Not Active | Not Active | Not Active |  |  | 
17 | CCCCc1nc(Cl)c(CO)n1Cc1ccc(-c2ccccc2-c2nnn[nH]2)cc1 [LOSARTAN] | Not Active |  |  | Not Active | Not Active | Not Active | Not Active | Not Active | Not Active | Not Active |  |  | 
18 | CC1(C)S[C@@H]2[C@H](NC(=O)Cc3ccccc3)C(=O)N2[C@H]1C(=O)O [PENICILLIN G] | Not Active |  |  | Not Active | Not Active |  |  | Not Active | Not Active | Not Active |  |  | 
19 | CN(C)CCCN1c2ccccc2Sc2ccccc21 [PROMAZINE] | Not Active |  |  | Not Active | Not Active | Not Active | Not Active | Not Active | Not Active | Not Active |  |  | 

Reference: ChEMBL document CHEMBL1909046, “DrugMatrix in vitro pharmacology data”
